Data taken from PMC6750895 (Journal of Medicinal Chemistry, 2019).
“Also recorded” adds a separate entry of the source.

What was measured:
[1] = set-up: method as in earlier work; settings: urine; cited from earlier work
MsCI4 = biological target: T1, MsCI4 (Magnetospirillum gryphiswaldense, UniProt A4TVL0); experiment: FRET-based binding assay with WT MsCI4; settings: for binding in the FRET assay (in words): WT MsCI4
T1 construct: made in house
T1 sequence (A4TVL0 1-124): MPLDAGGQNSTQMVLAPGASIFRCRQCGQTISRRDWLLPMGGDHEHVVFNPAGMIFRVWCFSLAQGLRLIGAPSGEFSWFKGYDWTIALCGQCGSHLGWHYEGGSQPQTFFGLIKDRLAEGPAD

IKZF3 = experiment: Compound-mediated IKZF3 degradation in OPM-2 cells (western blot); type: cell-based, human; settings: 24 h
[2] = Solubility in water or bicarbonate buffer; type: physicochemical
[3] = spontaneous hydrolysis, physiological pH of 7.4; cited from earlier work

Row | SMILES | binding in the FRET assay (in words) (MsCI4) | effect on IKZF3 levels / IKZF3 recruitment (in words) (IKZF3) | other results
1 | NC(=O)CCC(C(=O)O)N1C(=O)c2ccccc2C1=O (stereo not shown) [2-phthalimidoglutaramic acid] | – | – | share among urinary metabolites of thalidomide [1]: ~50%
2 | O=C1CC(N2C(=O)c3cccc([N+](=O)[O-])c3C2=O)C(=O)N1 (stereo not shown) [4a, 2-(2,5-Dioxopyrrolidin-3-yl)-4-nitroisoindoline-1,3-dione] | binding was observed but could not be quantified | abolish IKZF3 recruitment | –
3 | O=C1CC(N2C(=O)c3ccc([N+](=O)[O-])cc3C2=O)C(=O)N1 (stereo not shown) [4b, 2-(2,5-Dioxopyrrolidin-3-yl)-5-nitroisoindoline-1,3-dione] | – | abolish IKZF3 recruitment | –
4 | O=C1CCC(N2C(=O)c3cccc([N+](=O)[O-])c3C2=O)C(=O)N1 (stereo not shown) [4c, 2-(2,6-Dioxopiperidin-3-yl)-4-nitroisoindoline-1,3-dione] | binding was observed but could not be quantified | abolish IKZF3 recruitment | –
5 | O=C1CCC(N2C(=O)c3ccc([N+](=O)[O-])cc3C2=O)C(=O)N1 (stereo not shown) [4d, 2-(2,6-Dioxopiperidin-3-yl)-5-nitroisoindoline-1,3-dione] | – | abolish IKZF3 recruitment | –
6 | Nc1cccc2c1C(=O)N(C1CC(=O)NC1=O)C2=O (stereo not shown) [5a, 4-Amino-2-(2,5-dioxopyrrolidin-3-yl)isoindoline-1,3-dione] | binding was observed but could not be quantified | significant effects | –
7 | CC(C)=CC(=O)NC1CC(=O)NC1=O (stereo not shown) [7a, N-(2,5-Dioxopyrrolidin-3-yl)-3-methylbut-2-enamide] | binding was observed but could not be quantified | – | –
8 | O=C1CC(NC(=O)Cc2ccccc2)C(=O)N1 (stereo not shown) [7b, N-(2,5-Dioxopyrrolidin-3-yl)-2-phenylacetamide] | binding was observed but could not be quantified | abolished IKZF3 recruitment | –
9 | O=C1CC(NC(=O)OCc2ccccc2)C(=O)N1 (stereo not shown) [7d, Benzyl (2,5-Dioxopyrrolidin-3-yl)carbamate] | – | significant effects | reduction of IKZF3 levels (IKZF3; 100 μM): about 20%
10 | O=C1CC(NC(=O)c2cc([N+](=O)[O-])cc([N+](=O)[O-])c2)C(=O)N1 (stereo not shown) [7e, N-(2,5-Dioxopyrrolidin-3-yl)-3,5-dinitrobenzamide] | binding was observed but could not be quantified; also recorded: affinity was decreased under the detectable levels of the FRET assay | – | –
11 | O=C(/C=C/c1ccccc1)NC1CC(=O)NC1=O (stereo not shown) [7f, N-(2,5-Dioxopyrrolidin-3-yl)cinnamamide] | – | significant effects | –
12 | O=C1CC(NC(=O)c2sc3ccccc3c2Cl)C(=O)N1 (stereo not shown) [7g, 3-Chloro-N-(2,5-dioxopyrrolidin-3-yl)benzo[b]thiophene-2-carboxamide] | binding was observed but could not be quantified | – | –
13 | NCc1ccc(COC(=O)NC2CC(=O)NC2=O)cc1.O=C(O)C(F)(F)F (stereo not shown) [11a, (4-((((2,5-Dioxopyrrolidin-3-yl)carbamoyl)oxy)methyl)phenyl)methanaminium 2,2,2-Trifluoroacetate] | – | abolished IKZF3 recruitment | solubility in water (in words) [2]: water-soluble
14 | NCc1ccc(COC(=O)NC2CCC(=O)NC2=O)cc1.O=C(O)C(F)(F)F (stereo not shown) [11b, (4-((((2,6-Dioxopiperidin-3-yl)carbamoyl)oxy)methyl)phenyl)methanaminium 2,2,2-Trifluoroacetate] | – | – | Ki (MsCI4): 10 ± 0.8 µM; solubility in water (in words) [2]: water-soluble
15 | O=C(O)CCC(=O)NCc1ccc(COC(=O)NC2CC(=O)NC2=O)cc1 (stereo not shown) [12a, 4-((4-((((2,5-Dioxopyrrolidin-3-yl)carbamoyl)oxy)methyl)benzyl)amino)-4-oxobutanoic Acid] | – | abolished IKZF3 recruitment | –
16 | N[C@H]1CC[C@@H](COC(=O)NC2CC(=O)NC2=O)CC1 (stereo partly shown) [16a] | – | – | Ki (MsCI4): 20 ± 2 µM; solubility in water (in words) [2]: water-soluble
17 | N[C@H]1CC[C@@H](COC(=O)NC2CCC(=O)NC2=O)CC1 (stereo partly shown) [16b] | – | – | Ki (MsCI4): 5 ± 0.5 µM; solubility in water (in words) [2]: water-soluble
18 | O=C1CCC(NC(=O)c2ccccc2C(=O)O)C(=O)N1 (stereo not drawn) [CBG, α-(2-carboxybenzamido)glutarimide, reference compound] | – | – | share among urinary metabolites of thalidomide [1]: ~30%
19 | O=C1CCC(N2C(=O)c3ccccc3C2=O)C(=O)N1 (stereo not shown) [thalidomide] | – | – | half-life [3]: 5.5 to 7.3 h
